Results on ten molecules are retold here after patent publication US11643436B2, “Polypeptide compound, pharmaceutical composition, preparation method and application thereof” (CHENGDU SINTANOVO BIOTECHNOLOGY CO., LTD., priority 2019, dated 2023).

Read-outs that look alike come from different tables or passages of the source. A value given as a limit tells only on which side of the number the result lay.

One data set addresses human κ-opioid receptor (Homo sapiens (Human), UniProt P41145). Description: Forskolin-stimulated cAMP inhibition in HEK293 cells, κ-opioid receptor agonism. Type of data set: cell-based. The conditions noted are these: HEK293 cells highly expressing human κ-opioid receptor, read-out: KOR (EC50). As for the experimental part:
(§1) Forskolin can stimulate the release of cAMP from HEK293 cells with high expression of human κ (or μ, or δ)-opioid receptors. […] The efficacy of the compounds of the invention as κ-opioid receptor agonists was determined by measuring the ability of the compounds of Examples to inhibit adenylate cyclase activity.
(§2) Cell culture: The HEK293 cell line highly expressing human κ (or μ, or δ)-opioid receptor were cultured in DMEM medium containing 10% FBS.
(§3) Stimulation: the test compound was 4-fold diluted in a gradient manner to obtain 10 concentrations, and 50 nl of each was transferred to a 384-well plate, and then 10 nl Forskolin was added; the cells were digested, re-suspended, and counted; and then 10 μl of cell suspension (5×10^5 cell/mL) was added, and the cells were mixed gently, and incubated at 23° C. for 60 minutes.
(§4) Detection: cAMP Assay Kit (Cisbio) was used, cAMPD2 and Anti-cAMP conjugate were added, and the resultant mixture was incubated for 1 h at room temperature. The plate was read using envision (Perkin Elmer) and EC50 was obtained by means of fitting with a four-parameter equation.

The target in the next data set is human δ-opioid receptor (Homo sapiens (Human), UniProt P41143). The data set can be described thus: Forskolin-stimulated cAMP inhibition in HEK293 cells, δ-opioid receptor. It is filed as cell-based. To be noted: HEK293 cells highly expressing human δ-opioid receptor, read-out: DOR (EC50). As for the experimental part: as §1, §2, §3, §4
In another data set the target is human μ-opioid receptor (Homo sapiens (Human), UniProt P35372). The data set can be described thus: Forskolin-stimulated cAMP inhibition in HEK293 cells, μ-opioid receptor. It is filed as cell-based. To be noted: HEK293 cells highly expressing human μ-opioid receptor, read-out: MOR (EC50). How it is done: as §1, §2, §3, §4
Data set [1] in a line: Caco-2 membrane permeability assay. It is filed as in vitro ADME. To be noted: human, Caco-2, A-B direction, pH 7.4, 37° C. How it is done: The Caco-2 cell line is a human colon adenocarcinoma cell line that differentiates in culture and is used to model the epithelial lining of the human small intestine. Compounds of the present invention were tested in a membrane permeability assay using Caco-2 cell membrane layer in a standard assay. The apparent permeability coefficient (Papp) can be determined in the apical-to-basolateral (A-B) direction across cell monolayers cultured on 96-well polycarbonate membrane filters. The compound was maintained at pH 7.4 on the […] at a concentration of 5 μM, and the test plate was gently shaken and incubated at 37° C. for 120 minutes. Samples were taken at time zero from the donor side and at the end of the incubation period from both the donor and acceptor sides. Samples were analyzed by HPLC-MS/MS. The Papp value (expressed as […]) was then calculated based on the appearance rate of compound on the recipient side. Papp can be calculated by the following equation: Papp=(VA×[drug]acceptor)/(Area×Time×[drug]initial, donor) wherein Papp is the apparent permeability; VA is the volume of the acceptor side, Area is the surface area of the membrane, [drug]initial, donor is the concentration on the donor side at time zero, [drug]acceptor is the concentration of the compounds on the recipient side at the end of the incubation period, Time is the total incubation time.
(In general: Caco-2 monolayers are a common model of the intestinal barrier.)

The next data set has as its system ICR male mice. The data set can be described thus: Acetic acid writhing test in mice. The conditions noted are these: IV administration 15 minutes before 0.6% acetic acid i.p.; writhes within 15 min. Type of data set: in vivo. How it is done: The analgesic effect of the compound of the invention was evaluated by measuring the analgesic ED50 of the compounds of Examples in the acetic acid writhing test in mice.
The ICR male mice (18-25 g) were randomly separated into the drug group and the model group. 15 minutes after IV administration, 0.6% (v/v) acetic acid solution was intraperitoneally injected at 10 mL/kg. The number of writhes of the mice within 15 min was counted. The inhibition rate on the writhes was calculated based on the number of writhes. The ED50 of the compound to be tested was calculated based on inhibition rate according to a four-parameter equation.
On the technique in general: An intraperitoneal irritant provokes the stretching counted in writhing tests.

Another data set deals with cytochrome P450 CYP 1A2 (Homo sapiens (Human), UniProt P05177). The data set can be described thus: Inhibition of cytochrome P450 in human liver microsomes, CYP 1A2. Type of data set: in vitro ADME. How it is done: (§5) The human liver microsomes (0.253 mg/mL protein) containing cytochrome P450, test compounds (0.05-50 μM), CYPs substrates (10 μM […], 5 μM diclofenac, 30 μM mephenytoin, 5 μM dextromethorphan hydrobromide, 2 μM midazolam), 1.0 mM NADP were incubated at 37° C. for 10 minutes. Naflavone, sulfafenpyrazole, N-3-benzylnivan, quinidine, and ketoconazole were used as reference inhibitors.
(In general: Liver microsomes are a subcellular fraction often used to study metabolism.)

A further data set addresses cytochrome P450 CYP 2C19 (Homo sapiens (Human), UniProt P33261). The data set can be described thus: Inhibition of cytochrome P450 in human liver microsomes, CYP 2C19. Type of data set: in vitro ADME. How it is done: as §5
For the next data set, the target named is cytochrome P450 CYP 2D6 (Homo sapiens (Human), UniProt P10635). Description: Inhibition of cytochrome P450 in human liver microsomes, CYP 2D6. It is filed as in vitro ADME. How it is done: as §5
Another data set has as its target cytochrome P450 CYP 2C9 (Homo sapiens (Human), UniProt P11712). Description: Inhibition of cytochrome P450 in human liver microsomes, CYP 2C9. Type of data set: in vitro ADME. How it is done:
as §5

A further data set has as its target cytochrome P450 CYP 3A4 (Homo sapiens (Human), UniProt P08684). Description: Inhibition of cytochrome P450 in human liver microsomes, CYP 3A4. It is filed as in vitro ADME. As for the experimental part: as §5

Sequence of human δ-opioid receptor (P41143 whole entry, looked up): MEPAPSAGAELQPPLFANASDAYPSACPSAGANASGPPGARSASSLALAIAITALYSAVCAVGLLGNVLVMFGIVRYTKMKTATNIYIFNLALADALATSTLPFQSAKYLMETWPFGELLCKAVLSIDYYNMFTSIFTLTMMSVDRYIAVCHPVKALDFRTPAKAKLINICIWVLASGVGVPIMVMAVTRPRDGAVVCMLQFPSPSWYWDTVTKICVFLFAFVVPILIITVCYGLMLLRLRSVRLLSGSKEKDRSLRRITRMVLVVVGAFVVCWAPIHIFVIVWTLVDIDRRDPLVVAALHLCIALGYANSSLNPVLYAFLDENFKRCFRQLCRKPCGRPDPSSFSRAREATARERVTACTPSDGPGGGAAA
Sequence of cytochrome P450 CYP 3A4 (P08684 whole entry): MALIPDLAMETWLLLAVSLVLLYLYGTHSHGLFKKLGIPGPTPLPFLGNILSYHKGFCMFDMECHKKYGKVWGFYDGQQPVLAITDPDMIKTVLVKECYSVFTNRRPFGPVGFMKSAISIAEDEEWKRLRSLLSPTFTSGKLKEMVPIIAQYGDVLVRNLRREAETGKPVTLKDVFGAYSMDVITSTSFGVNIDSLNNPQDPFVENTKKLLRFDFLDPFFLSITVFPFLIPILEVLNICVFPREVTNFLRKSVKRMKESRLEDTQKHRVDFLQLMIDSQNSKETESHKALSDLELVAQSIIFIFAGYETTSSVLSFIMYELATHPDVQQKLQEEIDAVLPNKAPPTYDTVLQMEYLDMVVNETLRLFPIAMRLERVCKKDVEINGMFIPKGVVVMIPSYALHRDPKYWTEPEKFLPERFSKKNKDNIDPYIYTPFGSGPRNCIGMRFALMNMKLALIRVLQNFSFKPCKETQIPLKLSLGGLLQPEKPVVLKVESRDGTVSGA
Sequence of cytochrome P450 CYP 2D6 (P10635 whole entry): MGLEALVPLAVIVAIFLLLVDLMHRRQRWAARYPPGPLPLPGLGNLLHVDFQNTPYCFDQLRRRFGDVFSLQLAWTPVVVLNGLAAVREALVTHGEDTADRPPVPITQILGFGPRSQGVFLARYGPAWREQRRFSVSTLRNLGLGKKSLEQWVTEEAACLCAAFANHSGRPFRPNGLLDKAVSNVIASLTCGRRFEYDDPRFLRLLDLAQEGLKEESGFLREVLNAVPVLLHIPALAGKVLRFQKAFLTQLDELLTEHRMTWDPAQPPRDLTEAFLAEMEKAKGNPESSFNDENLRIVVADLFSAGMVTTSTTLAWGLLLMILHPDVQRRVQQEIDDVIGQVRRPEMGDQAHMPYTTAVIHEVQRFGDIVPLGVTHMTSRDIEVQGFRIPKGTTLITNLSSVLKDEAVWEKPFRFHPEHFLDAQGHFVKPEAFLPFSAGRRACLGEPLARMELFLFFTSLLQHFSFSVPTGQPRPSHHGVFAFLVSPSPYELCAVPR
Sequence of cytochrome P450 CYP 2C9 (P11712 whole entry): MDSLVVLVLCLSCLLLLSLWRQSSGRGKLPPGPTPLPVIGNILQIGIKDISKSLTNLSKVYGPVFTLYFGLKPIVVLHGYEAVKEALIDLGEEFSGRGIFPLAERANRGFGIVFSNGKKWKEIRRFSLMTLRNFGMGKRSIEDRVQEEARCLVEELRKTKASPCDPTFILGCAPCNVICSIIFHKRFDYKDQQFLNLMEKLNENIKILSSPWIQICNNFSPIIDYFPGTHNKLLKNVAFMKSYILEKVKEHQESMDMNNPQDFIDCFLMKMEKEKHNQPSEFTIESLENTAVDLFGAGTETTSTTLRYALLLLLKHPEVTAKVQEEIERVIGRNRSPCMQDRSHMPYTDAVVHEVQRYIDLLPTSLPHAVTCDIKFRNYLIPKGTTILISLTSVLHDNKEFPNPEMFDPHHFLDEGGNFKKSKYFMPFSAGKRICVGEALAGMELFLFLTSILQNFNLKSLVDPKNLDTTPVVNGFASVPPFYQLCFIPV
Sequence of cytochrome P450 CYP 2C19 (P33261 whole entry): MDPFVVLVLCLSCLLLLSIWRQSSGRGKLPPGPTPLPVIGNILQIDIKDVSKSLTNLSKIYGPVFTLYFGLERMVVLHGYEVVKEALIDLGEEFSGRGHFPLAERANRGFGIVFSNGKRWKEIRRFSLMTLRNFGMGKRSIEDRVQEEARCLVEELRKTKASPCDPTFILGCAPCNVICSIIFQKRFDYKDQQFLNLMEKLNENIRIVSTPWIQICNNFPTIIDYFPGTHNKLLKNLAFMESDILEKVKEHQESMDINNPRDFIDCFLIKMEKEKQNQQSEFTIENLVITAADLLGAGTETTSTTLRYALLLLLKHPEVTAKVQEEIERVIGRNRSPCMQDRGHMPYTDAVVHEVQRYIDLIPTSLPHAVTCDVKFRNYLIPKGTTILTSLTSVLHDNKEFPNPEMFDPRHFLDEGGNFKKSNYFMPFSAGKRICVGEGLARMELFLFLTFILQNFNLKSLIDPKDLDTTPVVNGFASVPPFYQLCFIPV
Sequence of cytochrome P450 CYP 1A2 (P05177 whole entry): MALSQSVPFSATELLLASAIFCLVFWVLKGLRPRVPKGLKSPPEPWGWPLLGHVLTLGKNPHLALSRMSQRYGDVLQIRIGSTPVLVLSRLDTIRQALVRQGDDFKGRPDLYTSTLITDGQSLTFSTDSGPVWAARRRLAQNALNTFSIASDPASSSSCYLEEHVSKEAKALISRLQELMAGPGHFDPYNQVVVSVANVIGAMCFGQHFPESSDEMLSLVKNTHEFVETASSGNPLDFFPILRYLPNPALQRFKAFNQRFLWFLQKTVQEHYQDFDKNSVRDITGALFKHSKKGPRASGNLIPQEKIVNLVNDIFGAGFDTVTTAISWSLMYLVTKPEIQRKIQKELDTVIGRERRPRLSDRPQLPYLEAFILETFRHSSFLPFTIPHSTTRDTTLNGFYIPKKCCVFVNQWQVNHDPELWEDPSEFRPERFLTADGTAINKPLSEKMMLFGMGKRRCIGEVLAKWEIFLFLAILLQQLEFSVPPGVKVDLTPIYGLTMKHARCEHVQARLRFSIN

Regarding `CC(C)C[C@@H](NC(=O)[C@@H](Cc1ccccc1)NC(=O)[C@H](N)Cc1ccccc1)C(=O)N[C@H](CCCCN)C(=O)N1CCC(B(O)O)CC1` [TM-1], the values for the concentration giving a half-maximal response (EC50) on human κ-opioid receptor, at human δ-opioid receptor and on human μ-opioid receptor were 0.0984 nM, above 10 µM and above 10 µM, respectively.

With `CC(C)C[C@@H](NC(=O)[C@@H](Cc1ccccc1)NC(=O)[C@H](N)Cc1ccccc1)C(=O)N[C@H](CCCCN)C(=O)N1CC[C@@H](B(O)O)C1` [TM-2A, (R)-1-(D-Phe-D-Phe-D-Leu-D-Lys)-3-pyrrolidineboronic acid], the values for the EC50 on human κ-opioid receptor, on human δ-opioid receptor and on human μ-opioid receptor were 0.0331 nM, above 10 µM and above 10 µM, respectively. Moreover, the Papp A→B at 120 min, 5 μM in [1] was below 0.05 ×10⁻⁶ cm/s. In the data set with ICR male mice, the ED50 was 0.679 µg/kg.

Regarding `CC(C)C[C@@H](NC(=O)[C@@H](Cc1ccccc1)NC(=O)[C@H](N)Cc1ccccc1)C(=O)N[C@H](CCCCN)C(=O)N1CC=C(B(O)O)C1` [TM-3], the EC50 at human κ-opioid receptor was 0.0547 nM; at human δ-opioid receptor, above 10 µM; on human μ-opioid receptor it was above 10 µM. Besides, the Papp A→B at 120 min, 5 μM in [1] was below 0.2 ×10⁻⁶ cm/s.

In the case of `CC(C)C[C@@H](NC(=O)[C@@H](Cc1ccccc1)NC(=O)[C@H](N)Cc1ccccc1)C(=O)N[C@H](CCCCN)C(=O)N1CCC=C(B(O)O)C1` [TM-5], the EC50 at human κ-opioid receptor was 0.027 nM; at human δ-opioid receptor, above 10 µM; at human μ-opioid receptor it was above 10 µM.

Consider `CC(C)C[C@@H](NC(=O)[C@@H](Cc1ccccc1)NC(=O)[C@H](N)Cc1ccccc1)C(=O)N[C@H](CCCCN)C(=O)N1CCC2(CC1)CC(B(O)O)C2` [TM-7], for which the EC50 at human κ-opioid receptor is 0.0087 nM; on human δ-opioid receptor it was above 10 µM; at human μ-opioid receptor, above 10 µM.

In the case of `CC(C)C[C@@H](NC(=O)[C@@H](Cc1ccccc1)NC(=O)[C@H](N)Cc1ccccc1)C(=O)N[C@H](CCCCN)C(=O)N1CCC(N)(B(O)O)CC1` [TM-8], the concentration for a half-maximal effect (EC50) is 0.0846 nM on human κ-opioid receptor, above 10 µM on human δ-opioid receptor and above 10 µM on human μ-opioid receptor. In data set [1], this molecule displayed a Papp A→B at 120 min, 5 μM below 0.1 ×10⁻⁶ cm/s.

For `CC(C)C[C@@H](NC(=O)[C@@H](Cc1ccccc1)NC(=O)[C@H](N)Cc1ccccc1)C(=O)N[C@H](CCCCN)C(=O)N1CCC[C@H]1B(O)O` [TM-9A, (R)-1-(D-Phe-D-Phe-D-Leu-D-Lys)-2-pyrrolidineboronic acid], the half-maximal effective concentration (EC50) at human δ-opioid receptor and on human μ-opioid receptor was above 10 µM throughout. Besides, the apical-to-basolateral permeability (Papp A→B) at 120 min, 5 μM in data set [1] is below 0.05 ×10⁻⁶ cm/s. In the data set with ICR male mice, this molecule showed an ED50 of 0.377 µg/kg.

`CC(C)C[C@@H](NC(=O)[C@@H](Cc1ccccc1)NC(=O)[C@H](N)Cc1ccccc1)C(=O)N[C@H](CCCCN)C(=O)N1CCCC[C@H]1B(O)O` [TM-13A, (R)-1-(D-Phe-D-Phe-D-Leu-D-Lys)-2-piperidine boronic acid]: the values for the EC50 at human κ-opioid receptor, at human δ-opioid receptor and on human μ-opioid receptor were 0.0946 nM, above 10 µM and above 10 µM, respectively.

As to `COCCOCCNCCCC[C@@H](NC(=O)[C@@H](CC(C)C)NC(=O)[C@@H](Cc1ccccc1)NC(=O)[C@H](N)Cc1ccccc1)C(=O)N1CC[C@H](B(O)O)C1` [TM-22B, (S)-1-(N2-D-Phe-D-Phe-D-Leu-N6-(2-(2-methoxyethoxy)ethyl)-D-Lys)-3-pyrrolidineboronic acid], the values for the EC50 at human κ-opioid receptor, at human δ-opioid receptor and on human μ-opioid receptor were 0.0095 nM, above 10 µM and above 10 µM, respectively. Further, the IC50 against cytochrome P450 CYP 1A2, on cytochrome P450 CYP 2C19, against cytochrome P450 CYP 2D6, against cytochrome P450 CYP 2C9 and at cytochrome P450 CYP 3A4 was above 50 µM in each case. This molecule also yielded a Papp A→B at 120 min, 5 μM in data set [1] below 0.1 ×10⁻⁶ cm/s.

As for `CC(C)C[C@@H](NC(=O)[C@@H](Cc1ccccc1)NC(=O)[C@H](N)Cc1ccccc1)C(=O)N[C@H](CCCCN)C(=O)NCCB(O)O` [TM-26], the IC50 on cytochrome P450 CYP 1A2 (microsomes), against cytochrome P450 CYP 2C19 (microsomes), against cytochrome P450 CYP 2D6 (microsomes), at cytochrome P450 CYP 2C9 (microsomes) and against cytochrome P450 CYP 3A4 (microsomes) was above 50 µM throughout. Moreover, in data set [1], the Papp A→B at 120 min, 5 μM was below 0.1 ×10⁻⁶ cm/s.

By EC50 is commonly meant the midpoint of the concentration-response curve. In general, Papp A→B refers to the apparent permeability from the apical to the basolateral side of a cell layer. As usually defined, the ED50 is the dose that gives a 50% effect, or the effect in half of the subjects. Higher therefore signals a need for a large dose. Usually IC50 stands for the point on the concentration scale where inhibition reaches its midpoint. A higher IC50 goes with weaker potency in that assay.
